The subject of assay [1] is oxidative MTHFD2 flux in SKOV3 cells. As to the kind of experiment: Oxidative MTHFD2 flux by 4-[2H]-glucose tracing. Type of assay: cell-based. Particulars: SKOV3 treated with rotenone and MTHFD2 inhibitor 60 μM. Here is the method: FIG. 4 Dynamic flux analysis with parallel tracers to quantify oxidative MTHFD2 flux. a, Oxidative MTHFD2 flux and percentage decrease in OCRfollowing MTHFD2 inhibition in SKOV3 cells treated with rotenone (0, 31, 62, 125, 250, 500 or 1,000 nM) and MTHFD2 inhibitor (0 or 60 μM). Oxidative MTHFD2 flux is proportional to [2H1]-serine/[2H1]-NADH enrichment in cells cultured with 4-[2H]-glucose for 8 h. Percentage decrease in OCR is estimated in SKOV3 cells treated with 60 μM MTHFD2i compared with 0 μM MTHFD2i. Oxidative flux data are combined from two independent experiments (n=4), with mean±s.d. estimated using error propagation. […] (n=6) and analysed using two-tailed Welch's t-test. e, Ratio of [2H2]-serine/[2H]-NADH enrichment in SKOV3 and OVCAR8 cells at 2 h after combined tracer introduction of 4-[2H]-glucose and [2H]-formate, representing the normalized contribution of [2H]-NADH to [2H2]-serine via oxidative MTHFD2 flux. Data combined from two independent experiments (n=6), with mean±s.d. estimated using error propagation and analysed by two-tailed Welch's t-test. f, [2H2]-serine enrichment in SKOV3 cells expressing shScramble or shUQCR11 at 2 h after combined tracer introduction of 4-[2H]-glucose and [2H]-formate. […] (n=5) and analysed using one-tailed non-parametric Mann-Whitney test. […]

A further assay deals with SKOV3 cells. The assay can be described thus: Oxygen consumption rate (OCR) measurement. Type of assay: cell-based. How it is done:
FIG. 4 Dynamic flux analysis with parallel tracers to quantify oxidative MTHFD2 flux. a, Oxidative MTHFD2 flux and percentage decrease in OCRfollowing MTHFD2 inhibition in SKOV3 cells treated with rotenone (0, 31, 62, 125, 250, 500 or 1,000 nM) and MTHFD2 inhibitor (0 or 60 μM). Oxidative MTHFD2 flux is proportional to [2H1]-serine/[2H1]-NADH enrichment in cells cultured with 4-[2H]-glucose for 8 h. Percentage decrease in OCR is estimated in SKOV3 cells treated with 60 μM MTHFD2i compared with 0 μM MTHFD2i. Oxidative flux data are combined from two independent experiments (n=4), with mean±s.d. estimated using error propagation. OCR data are representative of two independent experiments and presented as mean±s.d. estimated using error propagation (n=5). b, Reductive MTHFD2 flux and basal OCR in SKOV3 cells treated with rotenone (0, 31, 62, 125, 250 or 1,000 nM) and MTHFD2 inhibitor (0 or 60 μM). Reductive MTHFD2 flux is proportional to [2H1]-NADH in cells cultured with 2,3,3-[2H]-serine for 8 h. OCR data are representative of two independent experiments and presented as mean±s.e.m. (n=5). c, Schematic of combination tracer experiment with 4-[2H]-glucose and [2H]-formate to track oxidative MTHFD2 flux. […] (n=6) and analysed using two-tailed Welch's t-test. e, Ratio of [2H2]-serine/[2H]-NADH enrichment in SKOV3 and OVCAR8 cells at 2 h after combined tracer introduction of 4-[2H]-glucose and [2H]-formate, representing the normalized contribution of [2H]-NADH to [2H2]-serine via oxidative MTHFD2 flux. Data combined from two independent experiments (n=6), with mean±s.d. estimated using error propagation and analysed by two-tailed Welch's t-test. f, [2H2]-serine enrichment in SKOV3 cells expressing shScramble or shUQCR11 at 2 h after combined tracer introduction of 4-[2H]-glucose and [2H]-formate. […] (n=5) and analysed using one-tailed non-parametric Mann-Whitney test.
OCR measurement. […] Live OCR was measured for up to 16 h after attaching the lid.
Mito stress test with the Seahorse analyser. Mitochondrial OCR was measured using a Seahorse XFe96 analyser (Agilent Technologies). […]

For the molecule `Cc1c(N2CCN(C)[C@@H](C)C2)ccc2c3c(c(=O)oc12)CN(C(=O)c1ccc(NS(C)(=O)=O)c(OC(F)(F)F)c1)CC3` [DS18561882], in assay [1], the “oxidative MTHFD2 flux” value is “suppressed”. Besides, the OCR entry in the assay on SKOV3 cells (SKOV3, low range of rotenone doses plus MTHFD2 inhibitor 60 μM) is given as “synergistic decrease”; with SKOV3 cells (SKOV3, rotenone doses >62 nM plus MTHFD2 inhibitor) it was “did not detrimentally affect OCR”.

These data come from patent US20260018245A1, “SYSTEMS AND METHODS FOR IDENTIFYING AND TARGETING COLLATERAL LETHAL GENES” (The Regents of the University of Michigan, priority 2022, published 2026).
